Laboratory results taken from US20240025887A1, “THIENYL AND CYCLOALKYL AMINOPYRIMIDINE COMPOUNDS AS INHIBITORS OF NUAK KINASES, COMPOSITIONS AND USES THEREOF” (Ontario Institute for Cancer Research (OICR), priority 2021, published 2024).

Experiments:
Format in all cases: biochemical
NUAK2 (h) = molecular target: T1, NUAK2 (h) (Homo sapiens, UniProt Q9H093); assay: NUAK2 enzymatic assay (radiometric, Eurofins); conditions: radiometric, full-length recombinant enzyme
T1 construct: This assay was done radiometrically using full-length, recombinant enzyme; purchased Eurofins
T1 sequence (Q9H093 1-628): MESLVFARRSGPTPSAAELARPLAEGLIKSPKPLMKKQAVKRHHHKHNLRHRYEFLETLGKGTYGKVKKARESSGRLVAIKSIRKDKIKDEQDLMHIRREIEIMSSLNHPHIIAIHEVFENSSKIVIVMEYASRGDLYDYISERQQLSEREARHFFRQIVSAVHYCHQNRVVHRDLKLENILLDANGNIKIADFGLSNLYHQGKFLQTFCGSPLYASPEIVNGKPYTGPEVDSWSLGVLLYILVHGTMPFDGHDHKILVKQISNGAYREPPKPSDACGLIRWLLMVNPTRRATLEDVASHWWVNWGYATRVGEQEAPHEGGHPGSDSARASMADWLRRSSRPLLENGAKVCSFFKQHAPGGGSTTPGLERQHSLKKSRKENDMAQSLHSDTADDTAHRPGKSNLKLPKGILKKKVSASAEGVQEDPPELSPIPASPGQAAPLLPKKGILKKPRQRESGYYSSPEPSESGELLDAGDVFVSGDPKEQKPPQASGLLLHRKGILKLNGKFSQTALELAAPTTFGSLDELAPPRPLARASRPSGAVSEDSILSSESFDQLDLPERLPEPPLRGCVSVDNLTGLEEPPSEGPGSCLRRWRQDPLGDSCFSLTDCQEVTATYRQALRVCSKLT
Method in brief: (§1)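 Radiometric assay with full-length recombinant NUAK2 in 8 mM MOPS pH 7.0, 0.2 mM EDTA, 10 mM magnesium acetate, 300 μM peptide substrate and [33P]-ATP, 40 min at room temperature. Phosphoric acid stop, filter capture, scintillation counting. Aurora A and NUAK1 used as counter screens.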

NUAK1 = molecular target: T2, NUAK1 (Homo sapiens, UniProt O60285); assay: NUAK1 counter screen
T2 sequence (O60285 1-661): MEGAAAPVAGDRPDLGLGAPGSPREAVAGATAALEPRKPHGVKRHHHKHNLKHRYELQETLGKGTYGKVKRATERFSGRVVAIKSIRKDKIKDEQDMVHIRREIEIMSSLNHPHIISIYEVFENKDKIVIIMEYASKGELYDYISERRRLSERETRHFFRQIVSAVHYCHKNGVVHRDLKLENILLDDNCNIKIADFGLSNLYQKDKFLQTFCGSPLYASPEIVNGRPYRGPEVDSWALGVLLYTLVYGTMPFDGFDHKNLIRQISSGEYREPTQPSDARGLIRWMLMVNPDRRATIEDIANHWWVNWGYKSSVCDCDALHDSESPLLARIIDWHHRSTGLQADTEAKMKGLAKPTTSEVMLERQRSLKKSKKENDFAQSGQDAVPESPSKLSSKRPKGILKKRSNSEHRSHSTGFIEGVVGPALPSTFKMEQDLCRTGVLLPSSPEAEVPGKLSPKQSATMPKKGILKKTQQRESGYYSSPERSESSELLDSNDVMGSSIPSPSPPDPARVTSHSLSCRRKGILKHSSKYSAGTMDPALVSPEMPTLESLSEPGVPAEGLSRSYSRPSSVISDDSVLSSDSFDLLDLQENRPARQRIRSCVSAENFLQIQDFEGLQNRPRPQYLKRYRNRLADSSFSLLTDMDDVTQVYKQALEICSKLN
Method in brief: as §1

Aurora A = molecular target: T3, Aurora A (Homo sapiens, UniProt O14965); assay: Aurora A counter screen; conditions: read-out: AUR-A (IC50)
T3 sequence (O14965 1-403): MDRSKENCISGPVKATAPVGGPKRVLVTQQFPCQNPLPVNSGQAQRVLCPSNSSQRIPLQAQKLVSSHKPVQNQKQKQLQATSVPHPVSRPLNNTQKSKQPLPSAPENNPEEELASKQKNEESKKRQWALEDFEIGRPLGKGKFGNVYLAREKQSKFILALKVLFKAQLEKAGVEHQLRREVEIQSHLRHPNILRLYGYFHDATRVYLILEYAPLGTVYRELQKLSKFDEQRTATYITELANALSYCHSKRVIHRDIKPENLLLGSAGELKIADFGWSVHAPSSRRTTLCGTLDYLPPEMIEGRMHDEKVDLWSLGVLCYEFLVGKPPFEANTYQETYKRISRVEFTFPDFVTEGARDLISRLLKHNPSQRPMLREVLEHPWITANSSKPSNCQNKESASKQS
Method in brief: as §1

IC50 (NUAK2 (h)) [nM]	IC50 (NUAK1) [nM]	IC50 (Aurora A) [nM]	Compound
11 to 100	11 to 100	101 to 1000	NC(=O)c1sccc1Nc1nc(Nc2ccc(N3CCN4CCOC[C@H]4C3)cc2OC(F)F)ncc1Cl [Compound I-45, (R)-3-((5-chloro-2-((2-(difluoromethoxy)-4-(hexahydropyrazino[2,1-c][1,4]oxazin-8(1H)-yl)phenyl)amino)pyrimidin-4-yl)amino)thiophene-2-carboxamide]
11 to 100	11 to 100	> 1000	CN1CCN(c2ccc(Nc3ncc(Cl)c(Nc4ccsc4C(N)=O)n3)c(C(F)(F)F)c2)CC1 [Compound I-46, 3-((5-chloro-2-((4-(4-methylpiperazin-1-yl)-2-(trifluoromethyl)phenyl)amino)pyrimidin-4-yl)amino)thiophene-2-carboxamide]
11 to 100	0.1 to 10	11 to 100	CN(C)C1CCN(c2ccc(Nc3ncc(Cl)c(Nc4ccsc4C(N)=O)n3)c(OC(F)F)c2)CC1 [Compound I-47, 3-((5-chloro-2-((2-(difluoromethoxy)-4-(4-(dimethylamino)piperidin-1-yl)phenyl)amino)pyrimidin-4-yl)amino)thiophene-2-carboxamide]
0.1 to 10	0.1 to 10	11 to 100	NC(=O)c1sccc1Nc1nc(Nc2ccc(N3CCC(N4CCCC4)CC3)cc2OC(F)F)ncc1Cl [Compound I-48, 3-((5-chloro-2-((2-(difluoromethoxy)-4-(4-(pyrrolidin-1-yl)piperidin-1-yl)phenyl)amino)pyrimidin-4-yl)amino)thiophene-2-carboxamide]
11 to 100	11 to 100	101 to 1000	NC(=O)c1sccc1Nc1nc(Nc2ccc(N3CCN4CCOC[C@@H]4C3)cc2OC(F)F)ncc1Cl [Compound I-49, (S)-3-((5-chloro-2-((2-(difluoromethoxy)-4-(hexahydropyrazino[2,1-c][1,4]oxazin-8(1H)-yl)phenyl)amino)pyrimidin-4-yl)amino)thiophene-2-carboxamide]
11 to 100	11 to 100	11 to 100	COCCN1CCN(c2ccc(Nc3ncc(Cl)c(Nc4ccsc4C(N)=O)n3)c(OC(F)F)c2)CC1 [Compound I-50, 3-((5-chloro-2-((2-(difluoromethoxy)-4-(4-(2-methoxyethyl)piperazin-1-yl)phenyl)amino)pyrimidin-4-yl)amino)thiophene-2-carboxamide]
0.1 to 10	0.1 to 10	11 to 100	CN1CCN(C2CCN(c3ccc(Nc4ncc(Cl)c(Nc5cscc5C(N)=O)n4)c(OC(F)F)c3)CC2)CC1 [Compound I-51, 4-((5-chloro-2-((2-(difluoromethoxy)-4-(4-(4-methylpiperazin-1-yl)piperidin-1-yl)phenyl)amino)pyrimidin-4-yl)amino)thiophene-3-carboxamide]
11 to 100	11 to 100	101 to 1000	CN1CCC2(CC1)CCN(c1ccc(Nc3ncc(Cl)c(Nc4ccsc4C(N)=O)n3)c(OC(F)F)c1)C2 [Compound I-53, 3-((5-chloro-2-((2-(difluoromethoxy)-4-(8-methyl-2,8-diazaspiro[4.5]decan-2-yl)phenyl)amino)pyrimidin-4-yl)amino)thiophene-2-carboxamide]
11 to 100	11 to 100	101 to 1000	CN1CCC2(CC1)CCN(c1ccc(Nc3ncc(Cl)c(Nc4ccsc4C(N)=O)n3)c(OC(F)F)c1)CC2 [Compound I-54, 3-((5-chloro-2-((2-(difluoromethoxy)-4-(9-methyl-3,9-diazaspiro[5.5]undecan-3-yl)phenyl)amino)pyrimidin-4-yl)amino)thiophene-2-carboxamide]
11 to 100	0.1 to 10	101 to 1000	CN(C)[C@@H]1CCN(c2ccc(Nc3ncc(Cl)c(Nc4ccsc4C(N)=O)n3)c(OC(F)F)c2)C1 [Compound I-55, (R)-3-((5-chloro-2-((2-(difluoromethoxy)-4-(3-(dimethylamino)pyrrolidin-1-yl)phenyl)amino)pyrimidin-4-yl)amino)thiophene-2-carboxamide]
11 to 100	0.1 to 10	101 to 1000	CN(C)[C@H]1CCN(c2ccc(Nc3ncc(Cl)c(Nc4ccsc4C(N)=O)n3)c(OC(F)F)c2)C1 [Compound I-56, (S)-3-((5-chloro-2-((2-(difluoromethoxy)-4-(3-(dimethylamino)pyrrolidin-1-yl)phenyl)amino)pyrimidin-4-yl)amino)thiophene-2-carboxamide]
0.1 to 10	0.1 to 10	101 to 1000	CN1C[C@@H]2CN(c3ccc(Nc4ncc(Cl)c(Nc5ccsc5C(N)=O)n4)c(OC(F)F)c3)C[C@@H]2C1 [Compound I-57, 3-((5-chloro-2-((2-(difluoromethoxy)-4-((3aR,6aS)-5-methylhexahydropyrrolo[3,4-c]pyrrol-2(1H)-yl)phenyl)amino)pyrimidin-4-yl)amino)thiophene-2-carboxamide]
0.1 to 10	0.1 to 10	101 to 1000	NC(=O)c1sccc1Nc1nc(Nc2ccc(N3CCC(N4CCCCC4)CC3)cc2OC(F)F)ncc1Cl [Compound I-58, 3-((2-((4-([1,4′-bipiperidin]-1′-yl)-2-(difluoromethoxy)phenyl)amino)-5-chloropyrimidin-4-yl)amino)thiophene-2-carboxamide]
11 to 100	11 to 100	11 to 100	NC(=O)c1sccc1Nc1nc(Nc2ccc(N3CCC(O)CC3)cc2OC(F)F)ncc1Cl [Compound I-60, 3-((5-chloro-2-((2-(difluoromethoxy)-4-(4-hydroxypiperidin-1-yl)phenyl)amino)pyrimidin-4-yl)amino)thiophene-2-carboxamide]
11 to 100	11 to 100	11 to 100	CCN1CCN(C2CCN(c3ccc(Nc4ncc(Cl)c(Nc5ccsc5C(N)=O)n4)c(OC(F)F)c3)CC2)CC1 [Compound I-61, 3-((5-chloro-2-((2-(difluoromethoxy)-4-(4-(4-ethylpiperazin-1-yl)piperidin-1-yl)phenyl)amino)pyrimidin-4-yl)amino)thiophene-2-carboxamide]
11 to 100	11 to 100	101 to 1000	CC(C)N1CCN(C2CCN(c3ccc(Nc4ncc(Cl)c(Nc5ccsc5C(N)=O)n4)c(OC(F)F)c3)CC2)CC1 [Compound I-62, 3-((5-chloro-2-((2-(difluoromethoxy)-4-(4-(4-isopropylpiperazin-1-yl)piperidin-1-yl)phenyl)amino)pyrimidin-4-yl)amino)thiophene-2-carboxamide]
11 to 100	0.1 to 10	101 to 1000	CC(C)(C)N1CCN(C2CCN(c3ccc(Nc4ncc(Cl)c(Nc5ccsc5C(N)=O)n4)c(OC(F)F)c3)CC2)CC1 [Compound I-63, 3-((2-((4-(4-(4-(tert-butyl)piperazin-1-yl)piperidin-1-yl)-2-(difluoromethoxy)phenyl)amino)-5-chloropyrimidin-4-yl)amino)thiophene-2-carboxamide]
0.1 to 10	11 to 100	101 to 1000	C[C@@H]1CN(C2CCN(c3ccc(Nc4ncc(Cl)c(Nc5ccsc5C(N)=O)n4)c(OC(F)F)c3)CC2)C[C@H](C)N1C [Compound I-64, 3-((5-chloro-2-((2-(difluoromethoxy)-4-(4-((3R,5S)-3,4,5-trimethylpiperazin-1-yl)piperidin-1-yl)phenyl)amino)pyrimidin-4-yl)amino)thiophene-2-carboxamide]
